Patent publication US20150025012A1, “METHODS AND COMPOSITIONS FOR IDENTIFICATION, ASSESSMENT AND TREATMENT OF CANCERS ASSOCIATED WITH HEDGEHOG SIGNALING” (Infinity Pharmaceuticals, Inc., priority 2010, published 2015)

Tested on: murine Gli1
Experiment: Gli1 mRNA in sorted stromal cell fractions of tumors
Type: in vivo
Details: Lin+/Lin- and CD31+/CD31- fractions; IPI-926 40 mg/kg 24 hours prior to sacrifice
Source text: Since tumor-associated stroma is a complex mixture of different cell types, further experiments have been carried out to determine the identity of the IPI-926-responsive cells. Tumors were obtained from animals treated or untreated with IPI-926 and the cells from within the tumors were subsequently fractionated in the following manner. First, the human cancer cells were removed from the mixture using magnetic beads that were coated with an antibody against the cell surface marker, Ep-CAM. Those cells that remained were the murine stromal cells associated with that tumor. Next, these stromal cells were subsequently separated based on their expression of cell surface markers known to be associated with specific cell lineages. In one sample set, cells were separated based on their expression of a panel of markers specific for cells of the hematopoietic lineage. These cells can be referred to as either Lin− or Lin+. […]
Cells used for sorting experiments were obtained by the following procedure. […] After this incubation, the cells in the flow through and the column were then analyzed for their expression of specific mRNAs by RT-PCR.
RNA for analysis was isolated from cell pellets or tumor tissue using the Ambion RNA 4-PCR isolation kit according to the manufacturer's guidance. […] Relative quantification of the expression data was obtained using the ΔΔCT method as described by Applied Biosystems.

Compound: CC1=C2C[C@H]3[C@@H](CC[C@@H]4C[C@H](NS(C)(=O)=O)CC[C@@]43C)[C@@H]2CC[C@@]2(C1)O[C@@H]1C[C@H](C)CN[C@H]1[C@H]2C [IPI-926]
- murine Gli1 inhibition in stromal cell fractions: greatest degree of murine Gli1 inhibition was present in both the Lin-population and CD31-population
